From patent US20220347175A1, “PYRIDAZINONE DERIVATIVE” (Sumitomo Dainippon Pharma Co., Ltd., priority 2018, published 2022)
One block for each compound: values may come before it.

Assays:
human Nav1.1 = biological target: T1, human Nav1.1 (Homo sapiens, UniProt P35498); experiment: Amplification of Nav1.1-derived voltage-dependent sodium current (Nav1.1 current), cell line stably expressing human Nav1.1, automated patch clamp; format: cell-based
T1 construct: host or cells: HEK293
Procedure, shortened: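 Automated whole-cell voltage-clamp recordings used HEK293 cells stably expressing human Nav1.1, keeping only cells with >500 pA current, with currents evoked by ramp voltage. Compounds were applied in extracellular fluid with 1% DMSO, and amplification (%) was computed from peak current or AUC after versus before addition.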

human Nav1.5 = biological target: T2, human Nav1.5 (Homo sapiens, UniProt Q14524); experiment: Amplification of Nav1.5-derived voltage-dependent sodium current (Nav1.5 current), cell line stably expressing human Nav1.5, automated patch clamp; format: cell-based
T2 construct: expressed in transfected cells; host or cells: CHO-K1 (T-REx System, ThermoFisher Scientific)
T2 sequence (Q14524 1-2015 isoform Q14524-2): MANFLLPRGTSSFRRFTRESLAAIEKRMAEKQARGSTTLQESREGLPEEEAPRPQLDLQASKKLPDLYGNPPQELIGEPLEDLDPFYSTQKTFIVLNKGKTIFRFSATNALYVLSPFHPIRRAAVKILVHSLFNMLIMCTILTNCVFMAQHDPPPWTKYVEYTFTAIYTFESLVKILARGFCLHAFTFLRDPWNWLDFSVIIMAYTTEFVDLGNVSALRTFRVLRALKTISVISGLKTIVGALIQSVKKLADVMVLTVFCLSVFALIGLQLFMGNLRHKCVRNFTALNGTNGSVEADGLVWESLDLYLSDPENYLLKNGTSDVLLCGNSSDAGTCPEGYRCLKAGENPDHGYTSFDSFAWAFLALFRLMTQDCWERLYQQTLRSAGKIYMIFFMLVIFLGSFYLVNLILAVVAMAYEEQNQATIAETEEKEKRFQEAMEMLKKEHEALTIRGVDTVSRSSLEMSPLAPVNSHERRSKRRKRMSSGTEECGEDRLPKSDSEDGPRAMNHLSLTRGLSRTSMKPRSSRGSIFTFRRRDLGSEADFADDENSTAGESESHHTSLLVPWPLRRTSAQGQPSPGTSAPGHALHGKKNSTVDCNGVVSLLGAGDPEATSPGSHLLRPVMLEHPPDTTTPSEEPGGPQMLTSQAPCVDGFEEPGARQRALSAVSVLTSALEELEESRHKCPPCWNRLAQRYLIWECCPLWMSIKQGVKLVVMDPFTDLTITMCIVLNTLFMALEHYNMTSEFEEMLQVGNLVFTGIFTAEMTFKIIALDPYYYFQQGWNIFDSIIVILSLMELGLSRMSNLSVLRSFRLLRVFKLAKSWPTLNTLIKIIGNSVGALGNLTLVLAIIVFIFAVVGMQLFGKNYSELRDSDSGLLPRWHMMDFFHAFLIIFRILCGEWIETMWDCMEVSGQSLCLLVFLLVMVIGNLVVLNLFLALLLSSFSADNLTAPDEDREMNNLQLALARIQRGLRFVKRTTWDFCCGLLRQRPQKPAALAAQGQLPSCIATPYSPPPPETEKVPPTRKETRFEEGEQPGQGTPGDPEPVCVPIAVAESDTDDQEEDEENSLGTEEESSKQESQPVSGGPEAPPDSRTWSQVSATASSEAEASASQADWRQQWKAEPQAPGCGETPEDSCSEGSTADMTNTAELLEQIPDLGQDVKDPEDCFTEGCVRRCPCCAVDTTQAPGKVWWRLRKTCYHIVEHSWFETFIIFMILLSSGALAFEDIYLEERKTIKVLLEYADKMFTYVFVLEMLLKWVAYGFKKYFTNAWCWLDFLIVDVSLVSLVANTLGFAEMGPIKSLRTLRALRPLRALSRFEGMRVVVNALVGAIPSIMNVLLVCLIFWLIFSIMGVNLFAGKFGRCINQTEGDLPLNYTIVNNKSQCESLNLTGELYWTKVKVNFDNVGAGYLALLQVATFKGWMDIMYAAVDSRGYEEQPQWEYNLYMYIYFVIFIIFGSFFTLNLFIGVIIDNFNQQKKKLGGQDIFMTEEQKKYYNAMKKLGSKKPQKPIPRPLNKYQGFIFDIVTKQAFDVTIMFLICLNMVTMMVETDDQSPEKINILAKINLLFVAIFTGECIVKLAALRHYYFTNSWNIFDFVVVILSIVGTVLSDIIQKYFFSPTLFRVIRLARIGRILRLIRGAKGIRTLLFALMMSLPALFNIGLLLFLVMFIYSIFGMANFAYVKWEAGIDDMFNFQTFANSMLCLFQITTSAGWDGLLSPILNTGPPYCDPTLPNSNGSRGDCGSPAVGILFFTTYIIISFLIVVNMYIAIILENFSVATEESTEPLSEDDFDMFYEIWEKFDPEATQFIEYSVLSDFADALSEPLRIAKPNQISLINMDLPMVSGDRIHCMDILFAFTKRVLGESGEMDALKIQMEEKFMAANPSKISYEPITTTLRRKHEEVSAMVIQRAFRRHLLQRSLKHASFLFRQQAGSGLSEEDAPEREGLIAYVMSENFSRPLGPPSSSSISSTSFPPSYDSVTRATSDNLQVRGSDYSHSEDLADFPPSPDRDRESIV

[1] = 10 μmol/L compound, change of the area under the curve of Nav1.1 current (Test Result 1)
[2] = 10 μmol/L compound, change of the area under the curve of Nav1.5 current (Test Result 1)
[3] = compound 3 μmol/L, HEK293 stably expressing human Nav1.1
[4] = compound 3 μmol/L, CHO-K1 stably expressing human Nav1.5
[5] = 10 μmol/L compound, change of the area under the curve of Nav1.1 current (Test Result 1), read-out: Nav1.1 current amplification rate (%)
[6] = 10 μmol/L compound, change of the area under the curve of Nav1.5 current (Test Result 1), read-out: Nav1.5 current amplification rate (%)
[7] = compound 1 μmol/L, HEK293 stably expressing human Nav1.1
[8] = compound 1 μmol/L, CHO-K1 stably expressing human Nav1.5
[9] = compound 1 μmol/L, HEK293 stably expressing human Nav1.1, read-out: Nav1.1 current amplification rate (%)
[10] = compound 1 μmol/L, CHO-K1 stably expressing human Nav1.5, read-out: Nav1.5 current amplification rate (%)

SMILES: Cc1ccc(-c2ccc(=O)n(CC(=O)N3CCc4cnccc43)n2)cc1 [Example 159]
Nav1.1 current amplification rate (%) (human Nav1.1; [1]): 32%
Nav1.5 current amplification rate (%) (human Nav1.5; [2]): 26%

SMILES: CC1(C)CC=C(c2ccc(=O)n(CC(=O)Nc3ccn4nccc4c3)n2)CC1 [Example 427]
Nav1.1 current amplification rate (%) (human Nav1.1; [1]): 172%
Nav1.5 current amplification rate (%) (human Nav1.5; [2]): 63%

SMILES: CC1CC=C(c2ccc(=O)n(CC(=O)N3CCc4c(C5CCN(C)C5)cccc43)n2)CC1 (mixture of isomers) [Example 269]
Nav1.1 current amplification rate (%) (human Nav1.1; [3]): 127%
Nav1.5 current amplification rate (%) (human Nav1.5; [4]): 266%

SMILES: CC1CCN(c2ccc(=O)n(CC(=O)Nc3ccc4scnc4c3)n2)CC1 [Example 87]
Nav1.1 current amplification rate (%) (human Nav1.1; [1]): 255%
Nav1.5 current amplification rate (%) (human Nav1.5; [2]): 22%

SMILES: N#Cc1cncc(NC(=O)Cn2nc(C3=CCC(F)(F)CC3)ccc2=O)c1 [Example 107]
activation at 10 µM (human Nav1.1; [5]): 37%
activation at 10 µM (human Nav1.5; [6]): 24%

SMILES: CC1CC=C(c2ccc(=O)n(CC(=O)Nc3ccn4c(C5CC5)cnc4c3)n2)CC1 (racemic) [Example 335]
Nav1.1 current amplification rate (%) (human Nav1.1; [3]): 187%
Nav1.5 current amplification rate (%) (human Nav1.5; [4]): 65%

SMILES: Cc1noc2ccc(NC(=O)Cn3nc(N4CCC(C)CC4)ccc3=O)cc12 [Example 70]
Nav1.1 current amplification rate (%) (human Nav1.1; [1]): 68%
Nav1.5 current amplification rate (%) (human Nav1.5; [2]): 0%

SMILES: CC1CCN(c2ccc(=O)n(CC(=O)Nc3cccc(C#N)c3)n2)CC1 [Example 55]
Nav1.1 current amplification rate (%) (human Nav1.1; [1]): 111%
Nav1.5 current amplification rate (%) (human Nav1.5; [2]): 27%

SMILES: N#Cc1ccc(NC(=O)Cn2nc(N3CCCCCC3)ccc2=O)cn1 [Example 119]
activation at 10 µM (human Nav1.1; [5]): 120%
activation at 10 µM (human Nav1.5; [6]): 25%

SMILES: CC1CCN(c2ccc(=O)n(CC(=O)Nc3ccc(C(=O)N4CCCC4)cc3)n2)CC1 [Example 79]
Nav1.1 current amplification rate (%) (human Nav1.1; [1]): 165%
Nav1.5 current amplification rate (%) (human Nav1.5; [2]): 4%

SMILES: CC(=O)N1CC(c2cccc3c2CCN3C(=O)Cn2nc(-c3ccc(C)cc3)ccc2=O)C1 [Example 520]
activation at 1 µM (human Nav1.1; [9]): 253%
activation at 1 µM (human Nav1.5; [10]): 252%

SMILES: CC1CC=C(c2ccc(=O)n(CC(=O)N3CCN(c4ccccc4)CC3)n2)CC1 (racemic) [Example 258]
Nav1.1 current amplification rate (%) (human Nav1.1; [3]): 79%
Nav1.5 current amplification rate (%) (human Nav1.5; [4]): 4%

SMILES: CC1CC=C(c2ccc(=O)n(CC(=O)N3CCN(c4ccccn4)CC3)n2)CC1 (racemic) [Example 394]
Nav1.1 current amplification rate (%) (human Nav1.1; [1]): 98%
Nav1.5 current amplification rate (%) (human Nav1.5; [2]): 1%

Further lines, with some results ahead:

Nav1.1 current amplification rate (%) (human Nav1.1; [1]): 97%
SMILES: CC1CC=C(c2ccc(=O)n(CC(=O)Nc3ccn4ccnc4n3)n2)CC1 (racemic) [Example 242]
Nav1.5 current amplification rate (%) (human Nav1.5; [2]): 10%

Nav1.1 current amplification rate (%) (human Nav1.1; [3]): 233%
SMILES: COCc1nc2cc(NC(=O)Cn3nc(C4=CCC(C)CC4)ccc3=O)ccc2o1 (racemic) [Example 325]
Nav1.5 current amplification rate (%) (human Nav1.5; [4]): 10%

Nav1.1 current amplification rate (%) (human Nav1.1; [1]): 69%
SMILES: CC1CCN(c2ccc(=O)n(CC(=O)Nc3ccc4oc(=O)n(C)c4c3)n2)CC1 [Example 81]
Nav1.5 current amplification rate (%) (human Nav1.5; [2]): 21%

activation at 10 µM (human Nav1.1; [5]): 129%
SMILES: O=C(Cn1nc(N2CCC3(CCCC3)C2)ccc1=O)Nc1ccn2ccnc2c1 [Example 167]
activation at 10 µM (human Nav1.5; [6]): 21%

Nav1.1 current amplification rate (%) (human Nav1.1; [7]): 232%
SMILES: CC1CC=C(c2ccc(=O)n(CC(=O)Nc3ccc4cnnn4c3)n2)CC1 (racemic) [Example 345]
Nav1.5 current amplification rate (%) (human Nav1.5; [8]): 46%

activation at 10 µM (human Nav1.1; [5]): 95%
SMILES: COc1ccc2c(c1)CCN2C(=O)Cn1nc(N2CCC(C)CC2)ccc1=O [Example 183]
activation at 10 µM (human Nav1.5; [6]): 0%

Nav1.1 current amplification rate (%) (human Nav1.1; [7]): 210%
SMILES: CC1CC=C(c2ccc(=O)n(CC(=O)N3CCc4c3cccc4C(C)(C)O)n2)CC1 (racemic) [Example 277]
Nav1.5 current amplification rate (%) (human Nav1.5; [8]): 18%

activation at 1 µM (human Nav1.1; [9]): 130%
SMILES: Cc1ccc(-c2ccc(=O)n(CC(=O)N3CCc4c(C5CN(C6COC6)C5)cccc43)n2)cc1 [Example 516]
activation at 1 µM (human Nav1.5; [10]): 13%

Nav1.1 current amplification rate (%) (human Nav1.1; [1]): 175%
SMILES: CC1CC=C(c2ccc(=O)n(CC(=O)N3CC=C(c4cncnc4)CC3)n2)CC1 (racemic) [Example 398]
Nav1.5 current amplification rate (%) (human Nav1.5; [2]): 29%

activation at 3 µM (human Nav1.1; compound 3 μmol/L, HEK293 stably expressing human Nav1.1, read-out: Nav1.1 current amplification rate (%)): 303%
SMILES: COc1cc(N2CCC3(CCC3)C2)nn(CC(=O)N2CCc3c(N4CCOCC4)cccc32)c1=O [Example 227]
activation at 3 µM (human Nav1.5; compound 3 μmol/L, CHO-K1 stably expressing human Nav1.5, read-out: Nav1.5 current amplification rate (%)): 17%

Nav1.1 current amplification rate (%) (human Nav1.1; [3]): 231%
SMILES: CC1CC=C(c2ccc(=O)n(CC(=O)N3CCc4c(C5=CCN(C)C5)cccc43)n2)CC1 (racemic) [Example 267]
Nav1.5 current amplification rate (%) (human Nav1.5; [4]): 79%

Nav1.1 current amplification rate (%) (human Nav1.1; [1]): 287%
SMILES: Cc1nc2cc(NC(=O)Cn3nc(C4=CCC(C)CC4)ccc3=O)ccc2o1 (centres unmarked) [Example 422]
Nav1.5 current amplification rate (%) (human Nav1.5; [2]): 28%
